Test [1] has as its target T1, Histone deacetylase 8 (Homo sapiens, UniProt Q9BY41).
T1 sequence (Q9BY41 whole entry): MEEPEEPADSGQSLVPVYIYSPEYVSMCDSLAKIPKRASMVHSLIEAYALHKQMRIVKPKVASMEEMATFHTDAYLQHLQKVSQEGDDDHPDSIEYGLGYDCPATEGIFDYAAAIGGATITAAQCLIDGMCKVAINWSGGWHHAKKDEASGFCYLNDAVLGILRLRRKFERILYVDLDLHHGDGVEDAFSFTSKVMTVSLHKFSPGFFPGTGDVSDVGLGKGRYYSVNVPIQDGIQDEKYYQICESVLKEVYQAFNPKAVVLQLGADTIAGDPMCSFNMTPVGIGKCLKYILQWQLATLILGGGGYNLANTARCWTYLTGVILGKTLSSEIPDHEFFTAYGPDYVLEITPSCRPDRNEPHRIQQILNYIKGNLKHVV
Nature of the test: Inhibition of human HDAC8 expressed in Escherichia coli using Boc-Lys (acetyl)-AMC as substrate treated for 5 mins before substrate addition measured after 30 mins by fluorescence assay.

Test [2] has as its target Histone deacetylase 1 (Homo sapiens, UniProt Q13547). In words: Inhibition of human HDAC1 expressed in Escherichia coli using fluorogenic substrate treated for 5 mins before substrate addition measured after 30 mins by fluorescence assay.
Test [3] relates to MCF7. Nature of the test: Antiproliferative activity against human MCF7 cells after 48 hrs by MTT assay. The class given is functional, cell-based. As to conditions: MCF7, 48 h. (In general: Tetrazolium dyes change colour on reduction, which living cells bring about.)
In test [4] the test system is MDA-MB-231. In words: Antiproliferative activity against human MDA-MB-231 cells after 48 hrs by MTT assay. As to conditions: MDA-MB-231, 48 h. The class given is functional, cell-based.
In test [5] the test system is PC-3. Nature of the test: cells. The following applies: Homo sapiens, PC-3, 48 h.

pIC50: −log10 of the molar value. Some results are limits rather than exact numbers.

Histone deacetylase 1, sequence (Q13547 whole entry): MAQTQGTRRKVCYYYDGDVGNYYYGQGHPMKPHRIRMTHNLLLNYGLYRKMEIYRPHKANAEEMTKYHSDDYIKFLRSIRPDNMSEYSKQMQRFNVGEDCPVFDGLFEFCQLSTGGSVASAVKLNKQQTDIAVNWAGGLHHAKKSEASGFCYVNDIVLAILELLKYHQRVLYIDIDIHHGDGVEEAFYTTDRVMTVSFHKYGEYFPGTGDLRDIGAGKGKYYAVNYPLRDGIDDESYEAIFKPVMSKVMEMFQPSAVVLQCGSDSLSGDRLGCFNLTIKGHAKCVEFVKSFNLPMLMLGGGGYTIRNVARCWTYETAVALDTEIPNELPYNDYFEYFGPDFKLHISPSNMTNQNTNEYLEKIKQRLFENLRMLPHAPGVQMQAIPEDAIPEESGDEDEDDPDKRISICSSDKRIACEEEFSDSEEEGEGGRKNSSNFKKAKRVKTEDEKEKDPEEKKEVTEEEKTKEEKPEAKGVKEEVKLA

By pIC50 is commonly meant the negative decadic logarithm of the IC50, by convention in mol/L. `CC(C)(C)OC(=O)NCCCC(=O)N1CC2(C[C@H]1C(=O)NCCCCCC(=O)NO)SCCS2`: the pIC50 in test [1] is 6.02.
The compound `O=C(CCCCCNC(=O)[C@@H]1CC2(CN1)SCCS2)NO` showed a pIC50 in test [1] of 5.59.
Still for that read-out and setting: the result for `NCCC(=O)N1CC2(C[C@H]1C(=O)NCCCCCC(=O)NO)SCCS2` reads 5.71.
As for `CC(C)C[C@H](NC(=O)OC(C)(C)C)C(=O)N1CC2(C[C@H]1C(=O)NCCCCCC(=O)NO)SCCS2`, the pIC50 in test [2] is 6.17; in test [3] it was 5.45; in test [4], 5.46; in test [5] it was 5.37.
In the case of `CC(C)(C)OC(=O)N[C@@H](Cc1ccccc1)C(=O)N1CC2(C[C@H]1C(=O)NCCCCCC(=O)NO)SCCS2`, the pIC50 in test [2] was 6.01; in test [1], 7.46; in test [3] it was 5.11; in test [4], 5.55; in test [5], 4.90.
As for `N[C@@H](Cc1ccccc1)C(=O)N1CC2(C[C@H]1C(=O)NCCCCCC(=O)NO)SCCS2`, in test [1], the negative-log IC50 (pIC50) was 6.08.
For `CC(C)(C)OC(=O)N[C@@H](Cc1ccc(O)cc1)C(=O)N1CC2(C[C@H]1C(=O)NCCCCCC(=O)NO)SCCS2`, the negative logarithm of the IC50 (pIC50) was 6.35 in test [2]; 7.68 in test [1]; 4.67 in test [3]; 4.52 in test [4]; 4.61 in test [5].
With `N[C@@H](Cc1ccc(O)cc1)C(=O)N1CC2(C[C@H]1C(=O)NCCCCCC(=O)NO)SCCS2`, the pIC50 was 6.35 in test [2]; 6.31 in test [1]; less than 4.00 in test [3]; less than 4.00 in test [4]; less than 4.00 in test [5].
As for `CC(C)(C)OC(=O)N[C@@H](Cc1c[nH]c2ccccc12)C(=O)N1CC2(C[C@H]1C(=O)NCCCCCC(=O)NO)SCCS2`, the pIC50 in test [2] is 6.12; in test [1], 6.85; in test [3], 5.04; in test [4], 5.23; in test [5] it was 4.86.
Consider `N[C@@H](Cc1c[nH]c2ccccc12)C(=O)N1CC2(C[C@H]1C(=O)NCCCCCC(=O)NO)SCCS2`, for which the negative logarithm of the IC50 (pIC50) in test [1] was 6.16.
With `CC(C)(C)OC(=O)NCCCC[C@H](NC(=O)OC(C)(C)C)C(=O)N1CC2(C[C@H]1C(=O)NCCCCCC(=O)NO)SCCS2`, the negative logarithm of the IC50 (pIC50) was 6.01 in test [2]; 6.46 in test [1]; 4.37 in test [3]; 4.89 in test [4]; 4.46 in test [5].
On to `NCCCC[C@H](N)C(=O)N1CC2(C[C@H]1C(=O)NCCCCCC(=O)NO)SCCS2`, for which the negative logarithm of the IC50 (pIC50) in test [1] was 5.32.
Consider `O=C(CCCCCCC(=O)Nc1ccccc1)NO` [VORINOSTAT], for which the pIC50 in test [5] was 5.70.

These data come from ChEMBL document CHEMBL1833905, “Design, synthesis and primary activity assay of tripeptidomimetics as histone deacetylase inhibitors with linear linker and branched cap group” (Eur J Med Chem, 2011).
